Results on 2 compounds are retold here after patent publication US6864286B2, “Inhibitors of the EGF-receptor tyrosine kinase and methods for their use” (Parker Hughes Institute, priority 1998, dated 2005).

One assay concerns MDA-MB-361 cells. Kind of assay: In vitro clonogenic assay, MDA-MB-361. It is filed as cell-based, human. The conditions noted are these: 24 hour treatment; for inhibition at 0.1 µM / inhibition at 10 µM / inhibition at 100 µM: Homo sapiens. The method, then: In order to determine the cytotoxic activity of LFM and its analogs against breast cancer cells, cells in alpha-MEM supplemented with 10% (v/v) fetal calf serum were treated with various concentrations of the compounds for 24 hours at 37° C., washed twice in alpha-MEM, and then used in either MTT assays or in vitro invasion assays, as described hereinafter.
After treatment with LFM analogs, cells were resuspended in clonogenic medium consisting of alpha-MEM supplemented with 0.9% methylcellulose, 30% fetal bovine serum, and 50 μM 2-mercaptoethanol. Cells were plated in duplicate Petri dishes at 100,000 cells/mL/dish and cultured in a humidified 5% CO2 incubator for 7 days. Cancer cell colonies were enumerated on a grid using an inverted phase microscope of high optical resolution (Uckun F. M., et al. Clin. Cancer Res. 1998, 4, 901-912; and Kuo). Results were expressed as % inhibition of clonogenic cells at a particular concentration of the test agent using the formula: % Inhibition=(1-Mean # of colonies [Test]/Mean # of colonies [Control])×100. Furthermore, the dose survival curves were constructed using the percent control survival (=Mean # of colonies[Test]/Mean # of colonies [Control]×100) results for each drug concentration as the data points and the IC50 values were calculated. The IC50 values were determined using an Prism Version II Inplot program (Graphpad Software, Inc., San Diego, Calif.).

Assay [1] concerns the target T1, insulin receptor kinase (IRK) (Homo sapiens, UniProt P06213).
T1 construct: IRK was immunoprecipitated from the lysates with an anti-IRb antibody; endogenous in cells; host or cells: HepG2 human hepatoma cells (ATCC)
Kind of assay: Cell-free IRK immune complex kinase assay. Type of assay: biochemical. The conditions noted are these: for effect on enzymatic activity of IRK: at concentrations as high as 350 μM, IRK from HepG2 cells. On the procedure:
Immunoprecipitations, immune-complex protein kinase assays, and immunoblotting using the ECL chemiluminescence detection system (Amersham Life Sciences) were conducted as described previously (Vassilev, A., et al. J. Biol. Chem. 1998, in press; Goodman, P. A., et al. J. Biol. Chem. 1998, 273, 17742; Mahajan, S., et al. Mol. Cell. Biol. 1995, 15, 5304; Uckun, F. M., et al. Science 1996, 22, 1096).
Horse radish peroxidase-conjugated sheep anti-mouse, donkey anti-rabbit secondary antibodies and ECL reagents were purchased from Amersham (Oakbrook, Ill.). For insulin receptor kinase (IRK) assays, HepG2 human hepatoma cells grown to approximately 80% confluency were washed once with serum-free DMEM and starved for 3 hour at 37° in a CO2 incubator. Subsequently, cells were stimulated with insulin (Eli Lilly, cat# CP-410;10 units/ml/10×10^6 cells) for 10 minutes at room temperature. Following this IRK activation step, cells were washed once with serum free medium, lysed in NP-40 buffer and IRK was immunoprecipitated from the lysates with an anti-IRb antibody (Santa Cruz, Cat.# sc-711, polyclonal IgG). Prior to performing the immunecomplex kinase assays, the beads were equilibrated with the kinase buffer (30 mM Hepes pH 7.4, 30 mM NaCl, 8 mM MgCl2, 4 mM MnCl2).

In assay [2] the test system is MDA-MB-231 breast cancer cells. As to the kind of experiment: Flow cytometric apoptosis assay (MC540 binding / PI permeability). It is filed as cell-based, human. The conditions noted are these: for Apoptotic fraction [AF] with MC540+/PI+ advanced stage apoptosis: 24 hours. The source says: Loose packing of membrane phospholipid head groups and cell shrinkage precede DNA fragmentation in apoptotic cells, thereby providing MC540 binding as an early marker for apoptosis (Uckun F. M., et al. Clin. Cancer Res. 1998, 4, 901-912; and Kuo, E. A. J. Med. Chem. 1996, 39, 4608-4621). Plasma membrane permeability to propidium iodide (PI, Sigma) develops at a later stage of apoptosis (Uckun F. M., et al. Clin. Cancer Res. 1998, 4, 901-912; and Kuo, E. A. J. Med. Chem. 1996, 39, 4608-4621). MC540 binding and PI permeability were simultaneously measured in breast cancer cells 24 hours after exposure to leflunomide analogs, as described (Uckun F. M., et al. Clin. Cancer Res. 1998, 4, 901-912. Stock solutions of MC540 and PI, each at 1 mg/mL, were passed through a 0.22 μm filter and stored at 4° C. in the dark. Shortly before analysis, suspensions containing 1×10^6 cells were suspended in 5 μg/mL MC540 and 10 μg/mL PI and kept in the dark at 4° C. Whole cells were analyzed with a FACS Calibur or FACS Vantage flow cytometer (Becton Dickinson, San Jose, Calif.). All analyses were done using 488 nm excitation from an argon laser. MC540 and PI emissions were split with a 600 nm short pass dichroic mirror and a 575 nm band pass filter was placed in front of one photomultiplier tube to measure MC540 emission and a 635 nm band pass filter was used for PI emission.
Loose packing of membrane phospholipid head groups and cell shrinkage precede DNA fragmentation in apoptotic cells, thereby providing MC540 binding as an early marker for apoptosis (Uckun, F. M. et al., Science, 1995, 267, 886-891). MC540 binding and propidium iodide (PI) permeability of MDA-MB-231 breast cancer cells were simultaneously measured before and after a 24 hour treatment with 100 μM or 500 μM LFM-A12. Whole cells were analyzed with a FACStar Plus flow cytometer (Becton Dickinson, San Jose, Calif.).
In general terms: Flow cytometry measures light scatter and fluorescence of single cells or particles in a stream.

As a reminder, the inhibition is the drop in the measured response relative to a control, in per cent. The low end stands for a response near the control, the high end for a response far below the control. The pIC50 is the negative decadic logarithm of the IC50, by convention in mol/L.

SMILES strings stand for the structures. pIC50: −log10 of the molar value. Entries after “also recorded” stand apart in the source; their conditions may differ.

T1 sequence (P06213 763-1382 limits assumed): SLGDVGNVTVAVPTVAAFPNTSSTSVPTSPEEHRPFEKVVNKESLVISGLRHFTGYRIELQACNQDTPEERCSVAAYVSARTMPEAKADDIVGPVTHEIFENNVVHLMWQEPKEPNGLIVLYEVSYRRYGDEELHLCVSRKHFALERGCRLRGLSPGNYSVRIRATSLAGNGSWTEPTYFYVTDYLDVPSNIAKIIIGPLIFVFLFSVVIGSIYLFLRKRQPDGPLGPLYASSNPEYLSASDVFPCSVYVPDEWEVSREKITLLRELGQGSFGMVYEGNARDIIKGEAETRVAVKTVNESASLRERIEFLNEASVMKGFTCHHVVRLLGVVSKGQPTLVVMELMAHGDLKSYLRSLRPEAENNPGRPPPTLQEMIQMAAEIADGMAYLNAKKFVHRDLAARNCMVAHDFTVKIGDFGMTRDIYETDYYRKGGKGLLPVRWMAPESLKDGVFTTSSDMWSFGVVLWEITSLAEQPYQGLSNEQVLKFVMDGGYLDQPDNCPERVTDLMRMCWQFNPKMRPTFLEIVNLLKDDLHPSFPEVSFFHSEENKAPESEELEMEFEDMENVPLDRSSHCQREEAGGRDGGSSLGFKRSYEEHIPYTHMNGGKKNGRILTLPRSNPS
T1 sequence (P06213 28-758 partner limits assumed): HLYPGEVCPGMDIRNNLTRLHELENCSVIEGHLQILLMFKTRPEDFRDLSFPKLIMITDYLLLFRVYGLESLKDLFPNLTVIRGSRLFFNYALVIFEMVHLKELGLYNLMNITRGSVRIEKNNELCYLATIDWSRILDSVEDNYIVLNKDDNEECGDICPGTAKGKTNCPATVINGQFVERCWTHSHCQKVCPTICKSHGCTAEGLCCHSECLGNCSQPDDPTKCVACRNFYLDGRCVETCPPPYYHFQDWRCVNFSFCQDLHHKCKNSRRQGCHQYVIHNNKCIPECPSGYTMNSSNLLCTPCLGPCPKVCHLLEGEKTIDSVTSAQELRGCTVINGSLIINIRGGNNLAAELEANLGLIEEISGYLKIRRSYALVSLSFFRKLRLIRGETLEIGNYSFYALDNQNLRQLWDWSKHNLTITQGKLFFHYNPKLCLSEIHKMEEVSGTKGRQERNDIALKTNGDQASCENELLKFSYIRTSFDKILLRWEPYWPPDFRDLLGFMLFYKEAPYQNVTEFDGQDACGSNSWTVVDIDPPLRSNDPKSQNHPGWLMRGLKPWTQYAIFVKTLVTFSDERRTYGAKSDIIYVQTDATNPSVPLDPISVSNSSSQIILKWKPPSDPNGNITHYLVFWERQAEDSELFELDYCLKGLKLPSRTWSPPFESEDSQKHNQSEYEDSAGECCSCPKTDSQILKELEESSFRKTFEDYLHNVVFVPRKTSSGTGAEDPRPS

In the case of `CC(O)=C(C#N)C(=O)Nc1ccc(C(F)(F)F)cc1` [LFM, α-Cyano-β-hydroxy-β-methyl-N-[4-(trifluoromethyl)phenyl]-propenamide, reference compound], in the assay with MDA-MB-361 cells (MDA-MB-361, 0.1 μM), the inhibition at 0.1 µM came out at 27.3% and the “Tumor Cell Colonies/10^5 Cells” value is 803. Further, in the assay with MDA-MB-361 cells (MDA-MB-361, 10 μM), the inhibition at 10 µM was determined as 51.5% and the “Tumor Cell Colonies/10^5 Cells” value came out at 535. Further, in the assay with MDA-MB-361 cells (MDA-MB-361, 100 μM), testing at 100 µM gave an inhibition of 82.3% and the “Tumor Cell Colonies/10^5 Cells” value is listed as 196. Further, the “effect on enzymatic activity of IRK” value in assay [1] is “did not affect the enzymatic activity; also recorded: lack of inhibition”. For the same compound, in assay [2] (MDA-MB-231, 24 hours), the induction of apoptosis result is given as “albeit to a lesser extent, also induced apoptosis”.
On to `C/C(O)=C(\C#N)C(=O)Nc1ccc(OC(F)(F)F)cc1` [LFM-A12, α-Cyano-β-hydroxy-β-methyl-N-[4-(trifluoromethoxy)phenyl]-propenamide], for which, in the assay on MDA-MB-361 cells (MDA-MB-361, 0.1 μM), at 0.1 µM the inhibition was 32.4% and the “Tumor Cell Colonies/10^5 Cells” value came to 746. In addition, in the assay with MDA-MB-361 cells (MDA-MB-361, 10 μM), testing at 10 µM gave an inhibition of 60.2% and the “Tumor Cell Colonies/10^5 Cells” value turned out to be 440. Besides, in the assay with MDA-MB-361 cells (MDA-MB-361, 100 μM), at 100 µM the inhibition was 87.3% and the “Tumor Cell Colonies/10^5 Cells” value is on record as 140. For the same compound, the pIC50 in assay [1] (IRK, cell-free, read-out: Inhibition IC50) was less than 3.46. Moreover, in assay [1], the “effect on enzymatic activity of IRK” value is recorded as “did not affect the enzymatic activity; also recorded: lack of inhibition”. For the same compound, in assay [2] (MDA-MB-231, 100 μM), the “Apoptotic fraction [AF] with MC540+/PI+ advanced stage apoptosis” value is 54%. For the same compound, the “Apoptotic fraction [AF] with MC540+/PI+ advanced stage apoptosis” value in assay [2] (MDA-MB-231, 500 μM) is reported as 85%.
